According to ChEMBL document CHEMBL5131458, “Design, synthesis and human carbonic anhydrase I, II, IX and XII inhibitory properties of 1,3-thiazole sulfonamides” (Bioorg Med Chem Lett, 2022):

Target: Carbonic anhydrase 9 (Homo sapiens, UniProt Q16790)
Test: Inhibition of recombinant human carbonic anhydrase 9 incubated for 15 mins by phenol red based stopped-flow CO2 hydration assay

| SMILES | Ki [nM] |
| --- | --- |
| CCCCCCCOC(=O)c1csc(Nc2ccc(S(N)(=O)=O)cc2)n1 | 74.3 |
| NS(=O)(=O)c1ccc(Nc2nc(C(=O)OCCCCc3ccccc3)cs2)cc1 | 86.8 |
| NS(=O)(=O)c1ccc(Nc2nc(C(=O)OCCOc3ccccc3)cs2)cc1 | 150 |
| CCCCOC(=O)c1csc(Nc2ccc(S(N)(=O)=O)cc2)n1 | 71.1 |
| CCCCCOC(=O)c1csc(Nc2ccc(S(N)(=O)=O)cc2)n1 | 72 |
| CCCCCCCCOC(=O)c1csc(Nc2ccc(S(N)(=O)=O)cc2)n1 | 78.9 |
| CC(C)OC(=O)c1csc(Nc2ccc(S(N)(=O)=O)cc2)n1 | 90.3 |

Next, values leading:

| Ki [nM] | SMILES |
| --- | --- |
| 70.6 | CCCCCCOC(=O)c1csc(Nc2ccc(S(N)(=O)=O)cc2)n1 |
| 37.9 | CC(CO)OC(=O)c1csc(Nc2ccc(S(N)(=O)=O)cc2)n1 (stereo not given) |
| 43.2 | NS(=O)(=O)c1ccc(Nc2nc(C(=O)OCCO)cs2)cc1 |
| 37.9 | CC(O)COC(=O)c1csc(Nc2ccc(S(N)(=O)=O)cc2)n1 (stereo not given) |
| 51.2 | CCOCCOC(=O)c1csc(Nc2ccc(S(N)(=O)=O)cc2)n1 |
| 35.1 | COCCOC(=O)c1csc(Nc2ccc(S(N)(=O)=O)cc2)n1 |
| 49.9 | CCCOC(=O)c1csc(Nc2ccc(S(N)(=O)=O)cc2)n1 |
| 26.8 | NS(=O)(=O)c1ccc(Nc2nc(C(=O)OCCOCCO)cs2)cc1 |
